Assay results from patent publication US20040170581A1, “Cosmetic agents” (priority 2001, published 2004).
Each block holds one compound with its values, some of them ahead of it.

Assays:
[1] = tested on: superoxide anions O2° produced by lipoxygenase; test: Anti-free radical test with superoxide anions produced by lipoxygenase; format: biochemical
Protocol: Activity against free radicals was determined by a biochemical test with a reactive oxygen species (ROS), the so-called superoxide anion (O2°). Superoxide anions come from xanthine oxidase and lipoxygenase activities. Xanthine oxidase (XOD) is an enzyme which is activated during oxidative stress and catalyzes the release of O2° during the degradation of hypoxanthine (HX) which is produced in excess in the event of a disturbance to the energy cell metabolism. O2° is then reacted spontaneously or by superoxide dismutase (SOD) to form hydrogen peroxide (H2O2) which in turn is a source of HO radicals which continue reacting in the Fenton reaction. O2° released during an inflammation process is formed from arachidonic acid by the lipoxygenase activity of leucocytes during the leucotriene synthesis (MacCord, M., Chabot Fletcher, M., Breton, J., Marshall, L.A.; Journal of Investigative Dermatology, 1994, Vol. 102, pp. 980-986; Bouclier, M., Hensby C.N.; Annales de Dermatologie & de V{acute over (en)}reologie, 1986, Vol. 113, pp. 1289-1293).
The enzymatic system arachidonic acidlipoxygenase leads during the synthesis of leucotrienes to the formation of O2° which can be determined by luminescence via luminol. Activity against free radicals is greater, the more the luminescence is suppressed.

[2] = tested on: G6PDH (glucose 6 phosphate dehydrogenase); test: G6PDH activity on human dermal fibroblasts; format: cell-based; settings: control = 100, 8 assays
Source text: This test was used to determine stimulation of the enzyme G6PDH (glucose 6 phosphate dehydrogenase) which counteracts the ageing process of human skin. G6PDH catalyzes the first step of the “pentose shunt” (also known as hexose monophosphate shunt or HMP shunt). The first step, the transformation of glucose-6-phosphate (G6P) into 6-phosphogluconate (6GP) by G6PDH, needs the coenzyme NADP which in turn is converted into NADPH2. This reduced form of the coenzyme catalyzes many enzymatic reactions and also glutathione recycling and lipid synthesis.
Determination of the G6PDH activity (glucose 6 phosphate dehydrogenase) was carried out by the microprocess described by Garidelli de Quincenet in Annual Dermatol. Venereol. 107 (12), 1163-1170 (1980). The DNA content was determined by the method described by Desaulniers in Toxic. In vitro 12 (4), 409-422 (1998) using in vitro cultures of human dermal fibroblasts. […]

human keratinocytes = test: Cell protection against UV-B rays (cellular DNA, LDH release); format: cell-based; settings: UV-B 50 mJ/cm^2, conc. 0.01 % w/v
Protocol: UV-B was selected as the stress factor because the rays produce cutaneous inflammation ([…]) by activating enzymes that release arachidonic acid, such as phospholipase A2 (PLA2) for example. […] The influence of UV-B rays on keratinocytes was determined in vitro through the release of cytoplasmatic enzymes, such as LDH (lactate dehydrogenase) for example, which runs parallel to the cell damage and the formation of PGE2. To carry out the test, a fibroblast culture was mixed with foetal calf serum and inoculated with the test substances 2 days later. After incubation for 36 h at 37° C. and a CO2 level of 5% by vol., the nutrient medium was replaced by an electrolyte solution and the fibroblasts were damaged with a particular dose of UV-B (50 mJ/cm^2). The quantity of keratinocytes was determined after trypsination via a cell counter while the LDH concentration was enzymatically determined.

- % Inhibition ([1]; concentration 0.00002 % w/v): 16%
- % Inhibition ([1]; concentration 0.0002 % w/v): 54%
Structure (SMILES): O=C(O)/C=C/c1ccc(O)c(O)c1 [Caffeic acid]

Structure (SMILES): CC1=C(/C=C/C(C)=C/C=C/C(C)=C/C(=O)O)C(C)(C)CCC1 [Retinoic acid]
- Level of G6PDH activity on day 6 (%/against control) Average value ([2]; concentration 0.0003 mM): 120 %/against control
- Level of G6PDH activity on day 6 (%/against control) Average value ([2]; concentration 0.001 mM): 128 %/against control

Structure (SMILES): O=C1O[C@H]([C@@H](O)CO)C(O)=C1O [ascorbic acid]
- LDH released (human keratinocytes; blank with UV-B = 100): 50 %-rel.
- Cellular DNA (human keratinocytes; blank without UV-B = 100, blank with UV-B = 29): 48 %-rel.
